Laboratory results: patent publication US5030635A, “6-7-dimethoxy-1,2-dihydro-2-arylquinazoline-3-oxides” (Ortho Pharmaceutical Corporation, priority 1990, dated 1991)

What was measured:
[1] = tested on: myocardial contractile force; assay: Acute In Vivo Cardiotonic Evaluation (myocardial contractile force); parameters: species or system adult mongrel dogs; conditions: Canis lupus familiaris, iv, i.v. infusion, anesthetized dogs, vs pretreatment control values, read-out: % Increase In Myocardial Contractile force; for change in vivo at 8.75 mg/kg: 8.75 mpk; for change in vivo at 1.87 mg/kg: 1.87 mpk
Method: Pharmacological Activity--Acute In Vivo Cardiotonic Evaluation
Using the procedures described by Alousi, A. A. et al., Circ. Res. 45, 666 (1979), adult mongrel dogs were anesthetized with sodium pentobarbital, and artificially respirated. Arterial pressure was recorded via a femoral artery and the pressure pulse was used to trigger a cardiotachometer for heart rate. Left ventricular pressure was measured with a Millar catheter, and dP/dt was derived. Cardiac output was determined by measuring ascending aortic blood flow with an electromagnetic flow probe, and the myocardial contractile force (CF) was measured with a Walton Brodie strain gauge sutured to the right ventricle. Lead II EKG was also recorded.
A standard dose of dopamine or dobutamine was administered in order to assess myocardial responsiveness. The test compounds were then administered by i.v. infusion and the effects on cardiovascular parameters were determined. The dose of each example compound was either 1.87 mg/kg or 8.75 mg/kg as set forth below in Table 1.
The dose related effects of the compound on myocardial contractile force was compared to pretreatment control values, expressed as a % change and rated for activity. Statistical evaluations were made using the appropriate parametric test against a vehicle control.

[2] = tested on: ovalbumin-induced bronchoconstriction; assay: Active Lung Anaphylaxis (inhibition of ovalbumin-induced bronchoconstriction); assay type: in vivo, male Harley guinea pigs; conditions: prior to ovalbumin provocation, actively sensitized guinea pigs, percent inhibition of control
Method: Pharmacological Activity--Active Lung Anaphylaxis
Using the procedures described by Ritchie, D. M. et al., Agents and Actions 11, 4 (1981), male Harley guinea pigs were actively sensitized, intraperitoneally, with 16 mg alum and 1 mg ovalbumin. Fourteen days later, these animals were anesthetized and their respiration arrested by the administration of succinylcholine. Respiration was maintained at a constant pressure by a miniature Starling pump. Lung overflow changes in pressure were recorded.
Animals were pretreated with indomethacin (10 mg/kg, i.v.), atropine (0.5 mg/kg, i.v.), methysergide (0.1 mg/kg, i.v.), methapyrilene (2.0 mg/kg, i.v.) and arachidonic acid (5.0 mg/kg, i.v.) prior to ovalbumin challenge. […] Indications of drug efficacy were manifested as a substantial reduction in the degree of bronchoconstriction evidenced by control animals.
Bronchoconstriction induced by ovalbumin was measured as a percent of maximum bronchoconstriction (BC) obtained by clamping off the trachea. Percent inhibition of control was determined as follows: [formula]

SMILES | change in vivo at 8.75 mg/kg [1] [%] | % Inhibition of Bronchoconstriction at 50 mpk [2] [%] | change in vivo at 1.87 mg/kg [1] [%]
COc1cc2c(cc1OC)C(C)=[N+]([O-])C(c1ccco1)N2 (stereo not drawn) [Example 9, 1,2-Dihydro-2-(2-furyl)-4-methyl-6,7-dimethoxyquinazoline-3-oxide] | 123 | – | –
COc1cc2c(cc1OC)C(C)=[N+]([O-])C(c1ccccc1)N2 (stereo not drawn) [Example 1, 1,2-Dihydro-2-phenyl-4-methyl-6,7-dimethoxy-quinazoline-3-oxide] | 157 | 60.9 | –
COc1cc2c(cc1OC)C(C)=[N+]([O-])C(c1cccs1)N2 (stereo not drawn) [Example 10, 1,2-Dihydro-2-(2-thienyl)-4-methyl-6,7-dimethoxyquinazoline-3-oxide] | 75 | – | –
COc1ccc(C2Nc3cc(OC)c(OC)cc3C(C)=[N+]2[O-])cc1 (stereo not drawn) [Example 3, 1,2-Dyhydro-2-(4-methoxyphenyl)-4-methyl-6,7-dimethoxyquinazoline-3-oxide] | – | – | 29
COc1cc2c(cc1OC)C(C)=[N+]([O-])C(c1ccc(C)cc1)N2 (stereo not drawn) [Example 4, 1,2-Dihydro-2-(4-tolyl)-4-methyl-6,7-dimethoxy-quinazoline-3-oxide] | – | 71.9 | 42
COc1cc2c(cc1OC)C(C)=[N+]([O-])C(c1ccc(Cl)cc1)N2 (stereo not drawn) [Example 2, 1,2-Dihydro-2-(4-chlorophenyl)-4-methyl-6,7-dimethoxyquinazoline-3-oxide] | 50 | – | –
COc1cc2c(cc1OC)C(C)=[N+]([O-])C(c1cccn1C)N2 (stereo not drawn) [Example 11, 1,2-Dihydro-2-(2-(N-methyl)pyrrolo)-4-methyl-6,7-dimethoxyquinazoline-3-oxide] | – | – | 29
COc1cc2c(cc1OC)C(C)=[N+]([O-])C(c1c(F)c(F)c(F)c(F)c1F)N2 (stereo not drawn) [Example 8, 1,2-Dihydro-2-pentafluorophenyl-4-methyl-6,7-dimethoxyquinazoline-3-oxide] | – | 27.3 | 33
COc1cc2c(cc1OC)C(C)=[N+]([O-])C(c1cccc3c1OCO3)N2 (stereo not drawn) [Example 6, 1,2-Dihydro-2-(2,3-methylenedioxyphenyl)-4-methyl-6,7-dimethoxyquinazoline-3-oxide] | 45 | – | –
COc1cc2c(cc1OC)C(C)=[N+]([O-])C(c1cccc(OCc3ccccc3)c1)N2 (stereo not drawn) [Example 7, 1,2-Dihydro-2-(3-benzyloxyphenyl)-4-methyl-6,7-dimethoxyquinazoline-3-oxide] | 20 | 49.5 | –
COc1cc2c(cc1OC)C(C)=[N+]([O-])C(c1ccncc1)N2 (stereo not drawn) [Example 13, 1,2-Dihydro-2-(4-pyridyl)-4-methyl-6,7-dimethoxyquinazoline-3-oxide] | 29 | – | –
COc1cc2c(cc1OC)C(C)=[N+]([O-])C(c1ccc3c(c1)OCO3)N2 (stereo not drawn) [Example 5, 1,2-Dihydro-2-(3,4-methylenedioxyphenyl)-4-methyl-6,7-dimethoxyquinazoline-3-oxide] | 124 | – | –
COc1cc2c(cc1OC)C(C)=[N+]([O-])C(c1ccccn1)N2 (stereo not drawn) [Example 12, 1,2-Dihydro-2-(2-pyridyl)-4-methyl-6,7-dimethoxyquinazoline-3-oxide] | 45 | 37.9 | –
